In the NIST ThermoML archive (doi:10.1021/acs.jced.5b00943):

Settings: Liquid, Ebulliometric method (Recirculating still)

C=CC(C)C#N (centres undefined) [2-methyl-3-butenenitrile]
Settings | vapor or sublimation pressure [kPa]
297.57 K | 2.701
304.35 K | 3.664
309.86 K | 4.608
315.95 K | 6.064
318.68 K | 6.731
321.34 K | 7.521
324.85 K | 8.987
327.15 K | 9.9
331.76 K | 11.75
335.25 K | 13.48
339.53 K | 15.75
343.65 K | 18.68
352.65 K | 25.35
356.05 K | 29.21
359.56 K | 33.21
364.85 K | 38.55
369.25 K | 44.68
373.25 K | 50.01
376.09 K | 55.48
379.75 K | 62.68
382.83 K | 68.94
387.65 K | 79.23
391.95 K | 90.16
394.25 K | 95.76
